The test system of the assay is PC-3M. The experiment in a line: Inhibition of cell migration at human PC-3M cells measured after 5 days by Hoechst 33342 staining based microscopic method. Particulars: 120 h. It counts as functional.

For `O=C(Nc1cccnc1)c1cccs1`, the AC50 is 1.98 µM.

One may read the AC50 as the concentration at which the activity in the assay is half-maximal.
